Assay: Example 6: 1-MCP headspace release from PSA labels
Format: physicochemical
Conditions: 2.5 cm x 2.5 cm PSA label, 250 mL bottle; for Headspace concentration of 1-MCP, average: 50 μL water
Protocol: A 100 mL quartz beaker was charged with 54 g of 2-isooctyl acrylate, 6 g of acrylic acid, and 0.60 g of 1-hydroxycyclohexyl phenyl ketone (IRGACURE® 184, Ciba Specialty Chemicals Corp. of Tarrytown, N.Y.). The beaker was equipped with a mechanical stirrer, and the contents were mixed for about 5 minutes while sparging with dry helium. Then the beaker was irradiated with a medium pressure mercury arc lamp operating at 79 watts per cm situated about 15 cm from the side of the beaker. The light was turned off when the contents of the flask were of a honey-like consistency, about 1.5 minutes. The beaker was further charged with 3.23 g of 1-MCP/c/α-CD, 0.89 g of IRGACURE® 184, 5.8 g of isooctyl acrylate, and 0.72 g of acrylic acid. The beaker contents were mixed until uniformly dispersed, about 5 minutes.
About 4 mL of the mixture in the bottle was removed with a metered dropper and dispensed on 30.5 cm by 30.5 cm white paper labelstock, and drawn down using a metering rod (Meyer coating rod #30) having a delivered coating thickness of 25 microns. Then a 21.5 cm by 28 cm silicone coated polyester (PET) film sheet (120 μm thick (obtained from the 3M Company of St. Paul, Minn.) was placed over the coated labelstock, taking care not to entrain air bubbles. The coated and covered labelstock was cut into 10 cm by 20 cm rectangles using a paper cutter. The cut samples were passed by hand about 15 cm beneath a medium pressure mercury arc lamp operating at 79 watts per cm; multiple hand passes beneath the UV light or about 30 seconds under the lamp was used to cure the adhesive. The cured coated labelstock sheets were allowed to sit PET side up on a laboratory bench overnight.
A paper cutter was used to cut six replicate 2.5 cm by 2.5 cm squares from the sheets. Because the UV cured coating composition is a pressure sensitive adhesive, or PSA, the 2.5 cm by 2.5 cm squares are termed “PSA labels.” Each PSA label, with the silicone coated PET still in place, was placed in a 250 mL serum bottle. Each bottle was sealed with a TEFLON® faced silicone septum. The headspace concentration of 1-MCP was measured after 1 hour following introduction of the PSA label into a bottle, using the technique of Example 3 except that 250 μL of gas was removed from the sample bottle for the analysis. 1-MCP was below the quantification limit of 0.01 ppm.
Then 50 μL of deionized water was injected into each bottle. […] The sealed bottle headspace was analyzed at 10 minutes, 30 minutes, and 60 minutes, using the technique of Example 3. A final headspace sample was analyzed 16 hours after the injection of water. The data illustrate that 1-MCP was released from a PSA label into the headspace when exposed to water vapor (humidity) and that its concentration increases over time.

CC1=CC1 [1-MCP, 1-methylcyclopropene]
Headspace concentration of 1-MCP, average (0.17 hours): 0.01 ppm (v/v) | Headspace concentration of 1-MCP, average (0.5 hours): 1.3 ppm (v/v) | Headspace concentration of 1-MCP, average (1 hour): 3.6 ppm (v/v) | Headspace concentration of 1-MCP, average (16 hours): 29.7 ppm (v/v) | Headspace concentration of 1-MCP (no water, 1 hour, quantification limit): < 0.01 ppm
